Assay results from patent US6376518B1, “Acyl derivatives of 4-demethylpenclomedine, use thereof and preparation thereof” (Southern Research Institute, priority 1999, dated 2002).

Legend:
[1] = Anti-cancer activity of precursor compounds
human MX-1 mammary tumor [2] = assay: In vivo antitumor activity vs s.c.-implanted human MX-1 mammary tumor xenograft in athymic mice; conditions: sc MX-1
human MX-1 mammary tumor [3] = assay: In vivo antitumor activity vs i.c.-implanted human MX-1 mammary tumor xenograft in athymic mice; conditions: ic MX-1, Days 1-5
[4] = oral (gavage) 135 mg/kg/dose, Days 13-17

Row | SMILES | anti-cancer activity (in words) [1] | Tumor-Free-Surv/Total (human MX-1 mammary tumor [2]; IP 135 mg/kg/dose, Days 11-15) | T-C (human MX-1 mammary tumor [2]; [4]) | Tumor-Free-Surv/Total (human MX-1 mammary tumor [2]; [4]) | Median % ILS (dying mice only) (human MX-1 mammary tumor [3]; IP 135 mg/kg/dose) | Median % ILS (dying mice only) (human MX-1 mammary tumor [3]; oral (gavage) 135 mg/kg/dose) | Median % ILS (dying mice only) (human MX-1 mammary tumor [3]; IP 90 mg/kg/dose) | Median % ILS (dying mice only) (human MX-1 mammary tumor [3]; oral (gavage) 90 mg/kg/dose)
1 | CCOc1c(Cl)c(OC)nc(C(Cl)(Cl)Cl)c1Cl [3,5-dichloro-4-ethoxy-6 methoxy-2-(trichloromethyl) pyridine] | active anti-cancer activity |  |  |  |  |  |  | 
2 | COc1nc(C(Cl)(Cl)Cl)c(Cl)c(OC(=O)C(C)(C)C)c1Cl [DM-P-PEN] |  | 5/5 | 0.9 days | 0/5 | +64% | +20% |  | 
3 | COC(=O)CCC(=O)Oc1c(Cl)c(OC)nc(C(Cl)(Cl)Cl)c1Cl [DM-CMP-PEN] |  | 3/5 |  | 2/5 |  |  | +87% | +76%
